ChEMBL document CHEMBL3045227, “Development of 4-aminoquinoline-1,3,5-triazine conjugates as potent antibacterial agent through facile synthetic route” (2013)
Converted amounts (≈) assume the structure as drawn. Blank lines part the entries; values can stand above or below the compound they belong to.

Columns and labels:
Type in all cases: functional
Bacillus cereus = assay: Antibacterial activity against Bacillus cereus NCIM 2156 assessed as growth inhibition after 24 hr by NCCLS broth dilution method; settings: NCIM 2156, 24 h
Pseudomonas aeruginosa = assay: Antibacterial activity against Pseudomonas aeruginosa NCIM 2036 assessed as growth inhibition after 24 hr by NCCLS broth dilution method; settings: NCIM 2036, 24 h
Staphylococcus aureus = assay: Antibacterial activity against Staphylococcus aureus NCIM 2079 assessed as growth inhibition after 24 hr by NCCLS broth dilution method; settings: NCIM 2079, 24 h
Bacillus subtilis = assay: Antibacterial activity against Bacillus subtilis NCIM 2063 assessed as growth inhibition after 24 hr by NCCLS broth dilution method; settings: NCIM 2063, 24 h
Proteus mirabilis = assay: Antibacterial activity against Proteus mirabilis NCIM 2241 assessed as growth inhibition after 24 hr by NCCLS broth dilution method; settings: NCIM 2241, 24 h
Proteus vulgaris = assay: Antibacterial activity against Proteus vulgaris NCIM 2027 assessed as growth inhibition after 24 hr by NCCLS broth dilution method; settings: NCIM 2027, 24 h
Escherichia coli = assay: Antibacterial activity against Escherichia coli NCIM 2065 assessed as growth inhibition after 24 hr by NCCLS broth dilution method; settings: NCIM 2065, 24 h

- MIC (Bacillus cereus): 6.25 µg/mL
- MIC (Pseudomonas aeruginosa): 12.5 µg/mL
- MIC (Staphylococcus aureus): 25 µg/mL
- MIC (Bacillus subtilis): 6.25 µg/mL
- MIC (Proteus mirabilis): 6.25 µg/mL
- MIC (Proteus vulgaris): 12.5 µg/mL
- MIC (Escherichia coli): 25 µg/mL
SMILES: NNc1nc(Nc2ccc([N+](=O)[O-])cc2)nc(N2CCN(C(=S)Nc3ccnc4cc(Cl)ccc34)CC2)n1.O

- MIC (Bacillus cereus): 6.25 µg/mL (≈ 10.5 µM)
- MIC (Pseudomonas aeruginosa): 12.5 µg/mL (≈ 21 µM)
- MIC (Staphylococcus aureus): 12.5 µg/mL (≈ 21 µM)
- MIC (Bacillus subtilis): 3.12 µg/mL (≈ 5.25 µM)
- MIC (Proteus mirabilis): 6.25 µg/mL (≈ 10.5 µM)
- MIC (Proteus vulgaris): 6.25 µg/mL (≈ 10.5 µM)
- MIC (Escherichia coli): 12.5 µg/mL (≈ 21 µM)
SMILES: NC(=O)NNc1nc(Nc2ccc([N+](=O)[O-])cc2)nc(N2CCN(C(=S)Nc3ccnc4cc(Cl)ccc34)CC2)n1

- MIC (Bacillus cereus): 3.12 µg/mL (≈ 5.11 µM)
- MIC (Pseudomonas aeruginosa): 6.25 µg/mL (≈ 10.2 µM)
- MIC (Staphylococcus aureus): 25 µg/mL (≈ 40.9 µM)
- MIC (Bacillus subtilis): 6.25 µg/mL (≈ 10.2 µM)
- MIC (Proteus mirabilis): 12.5 µg/mL (≈ 20.5 µM)
- MIC (Proteus vulgaris): 12.5 µg/mL (≈ 20.5 µM)
- MIC (Escherichia coli): 6.25 µg/mL (≈ 10.2 µM)
SMILES: NC(=S)NNc1nc(Nc2ccc([N+](=O)[O-])cc2)nc(N2CCN(C(=S)Nc3ccnc4cc(Cl)ccc34)CC2)n1

- MIC (Bacillus cereus): 12.5 µg/mL (≈ 21 µM)
- MIC (Pseudomonas aeruginosa): 12.5 µg/mL (≈ 21 µM)
- MIC (Staphylococcus aureus): 25 µg/mL (≈ 42.1 µM)
- MIC (Bacillus subtilis): 25 µg/mL (≈ 42.1 µM)
- MIC (Proteus mirabilis): 12.5 µg/mL (≈ 21 µM)
- MIC (Proteus vulgaris): 25 µg/mL (≈ 42.1 µM)
- MIC (Escherichia coli): 12.5 µg/mL (≈ 21 µM)
SMILES: NCCCNc1nc(Nc2ccc([N+](=O)[O-])cc2)nc(N2CCN(C(=S)Nc3ccnc4cc(Cl)ccc34)CC2)n1

The next lines start with the compound.

SMILES: O=[N+]([O-])c1ccc(Nc2nc(N3CCOCC3)nc(N3CCN(C(=S)Nc4ccnc5cc(Cl)ccc45)CC3)n2)cc1
- MIC (Bacillus cereus): 3.12 µg/mL (≈ 5.15 µM)
- MIC (Pseudomonas aeruginosa): 12.5 µg/mL (≈ 20.6 µM)
- MIC (Staphylococcus aureus): 3.12 µg/mL (≈ 5.15 µM)
- MIC (Bacillus subtilis): 6.25 µg/mL (≈ 10.3 µM)
- MIC (Proteus mirabilis): 12.5 µg/mL (≈ 20.6 µM)
- MIC (Proteus vulgaris): 3.12 µg/mL (≈ 5.15 µM)
- MIC (Escherichia coli): 6.25 µg/mL (≈ 10.3 µM)

SMILES: Cc1ccccc1Nc1nc(Nc2ccc([N+](=O)[O-])cc2)nc(N2CCN(C(=S)Nc3ccnc4cc(Cl)ccc34)CC2)n1
- MIC (Bacillus cereus): 12.5 µg/mL (≈ 19.9 µM)
- MIC (Pseudomonas aeruginosa): 6.25 µg/mL (≈ 9.97 µM)
- MIC (Staphylococcus aureus): 25 µg/mL (≈ 39.9 µM)
- MIC (Bacillus subtilis): 12.5 µg/mL (≈ 19.9 µM)
- MIC (Proteus mirabilis): 12.5 µg/mL (≈ 19.9 µM)
- MIC (Proteus vulgaris): 25 µg/mL (≈ 39.9 µM)
- MIC (Escherichia coli): 6.25 µg/mL (≈ 9.97 µM)

SMILES: Cc1ccc(Nc2nc(Nc3ccc([N+](=O)[O-])cc3)nc(N3CCN(C(=S)Nc4ccnc5cc(Cl)ccc45)CC3)n2)cc1
- MIC (Bacillus cereus): 3.12 µg/mL (≈ 4.98 µM)
- MIC (Pseudomonas aeruginosa): 6.25 µg/mL (≈ 9.97 µM)
- MIC (Staphylococcus aureus): 12.5 µg/mL (≈ 19.9 µM)
- MIC (Bacillus subtilis): 6.25 µg/mL (≈ 9.97 µM)
- MIC (Proteus mirabilis): 3.12 µg/mL (≈ 4.98 µM)
- MIC (Proteus vulgaris): 12.5 µg/mL (≈ 19.9 µM)
- MIC (Escherichia coli): 12.5 µg/mL (≈ 19.9 µM)

SMILES: O=[N+]([O-])c1ccc(Nc2nc(Nc3ccccc3)nc(N3CCN(C(=S)Nc4ccnc5cc(Cl)ccc45)CC3)n2)cc1
- MIC (Bacillus cereus): 3.12 µg/mL (≈ 5.1 µM)
- MIC (Pseudomonas aeruginosa): 6.25 µg/mL (≈ 10.2 µM)
- MIC (Staphylococcus aureus): 12.5 µg/mL (≈ 20.4 µM)
- MIC (Bacillus subtilis): 12.5 µg/mL (≈ 20.4 µM)
- MIC (Proteus mirabilis): 6.25 µg/mL (≈ 10.2 µM)
- MIC (Proteus vulgaris): 12.5 µg/mL (≈ 20.4 µM)
- MIC (Escherichia coli): 12.5 µg/mL (≈ 20.4 µM)

SMILES: CC1COc2c(N3CCN(C)CC3)c(F)cc3c(=O)c(C(=O)O)cn1c23 (stereo not given) [OFLOXACIN]
- MIC (Bacillus cereus): 6.25 µg/mL (≈ 17.3 µM)
- MIC (Pseudomonas aeruginosa): 6.25 µg/mL (≈ 17.3 µM)
- MIC (Staphylococcus aureus): 6.25 µg/mL (≈ 17.3 µM)
- MIC (Bacillus subtilis): 3.12 µg/mL (≈ 8.65 µM)
- MIC (Proteus mirabilis): 3.12 µg/mL (≈ 8.65 µM)
- MIC (Proteus vulgaris): 3.12 µg/mL (≈ 8.65 µM)
- MIC (Escherichia coli): 3.12 µg/mL (≈ 8.65 µM)

SMILES: O=[N+]([O-])c1ccc(Nc2nc(Nc3ccc(O)cc3)nc(N3CCN(C(=S)Nc4ccnc5cc(Cl)ccc45)CC3)n2)cc1
- MIC (Bacillus cereus): 25 µg/mL (≈ 39.7 µM)
- MIC (Pseudomonas aeruginosa): 25 µg/mL (≈ 39.7 µM)
- MIC (Staphylococcus aureus): 100 µg/mL (≈ 159 µM)
- MIC (Bacillus subtilis): 25 µg/mL (≈ 39.7 µM)
- MIC (Proteus mirabilis): 50 µg/mL (≈ 79.5 µM)
- MIC (Proteus vulgaris): 50 µg/mL (≈ 79.5 µM)
- MIC (Escherichia coli): 50 µg/mL (≈ 79.5 µM)
